Reference: ChEMBL document CHEMBL1201862, “PubChem BioAssay data set” (2004)
Active and inactive are the calls of the source.

Tests used:
[1] = target: DNA dC->dU-editing enzyme APOBEC-3A (Homo sapiens, UniProt P31941); assay: Dose Response confirmation of small molecule APOBEC3A DNA Deaminase Inhibitors via a fluorescence-based single-stranded DNA deaminase assay. [Related pubchem assays (depositor defined):AID493011, AID493024]; format: functional
Cytochrome P450 2C9 = Cytochrome P450 2C9 (Homo sapiens, UniProt P11712)
Cytochrome P450 2C19 = Cytochrome P450 2C19 (Homo sapiens, UniProt P33261); assay: Cytochrome panel assay with activity outcomes. Panel member name: p450-cyp2c19 Compounds with AC50 equal or less than 10 uM are considered active; format: functional
Cytochrome P450 2D6 [2] = target: T1, Cytochrome P450 2D6 (Homo sapiens, UniProt P10635);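 also: CYP2D6 member of a cytochrome P450 panel assay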
[3] = target: DNA dC->dU-editing enzyme APOBEC-3G (Homo sapiens, UniProt Q9HC16); format: functional;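 also: Dose-response counterscreen measuring inhibition of APOBEC3G DNA deaminase activity, run while confirming APOBEC3A inhibitors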
[4] = target: T2, Rac GTPase-activating protein 1 (Homo sapiens, UniProt Q9H0H5); assay: blockers of MgcRacGAP-driven Rac1 GTP hydrolysis – biochemical, ADP Hunter fluorescence, primary and confirmatory, confirmation (AID 624330); format: functional
T2 sequence (Q9H0H5 whole entry): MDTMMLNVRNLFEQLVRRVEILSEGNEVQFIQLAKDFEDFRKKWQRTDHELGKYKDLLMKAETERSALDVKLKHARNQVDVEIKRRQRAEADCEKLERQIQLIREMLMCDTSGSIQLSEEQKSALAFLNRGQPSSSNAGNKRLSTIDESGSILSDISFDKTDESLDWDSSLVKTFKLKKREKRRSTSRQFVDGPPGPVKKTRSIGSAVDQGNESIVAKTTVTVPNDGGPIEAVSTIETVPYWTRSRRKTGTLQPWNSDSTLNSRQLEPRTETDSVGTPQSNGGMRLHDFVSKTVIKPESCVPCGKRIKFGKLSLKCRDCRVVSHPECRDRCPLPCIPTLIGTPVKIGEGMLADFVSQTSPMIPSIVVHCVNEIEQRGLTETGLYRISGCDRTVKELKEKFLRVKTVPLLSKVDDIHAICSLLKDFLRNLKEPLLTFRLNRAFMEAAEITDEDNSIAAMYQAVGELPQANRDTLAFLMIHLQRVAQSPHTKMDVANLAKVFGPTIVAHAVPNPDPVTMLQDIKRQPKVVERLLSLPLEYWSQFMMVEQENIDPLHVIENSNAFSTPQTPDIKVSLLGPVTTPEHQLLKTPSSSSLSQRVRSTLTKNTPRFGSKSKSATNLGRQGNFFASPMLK

[5] = target: T3, Sentrin-specific protease 1 (Homo sapiens, UniProt Q9P0U3); assay: Dose response confirmation of small molecule inhibitors of the catalytic domain of the SUMO protease, SENP1 in a FRET assay.; format: functional; conditions: read-out: IC50_Mean
T3 sequence (Q9P0U3 whole entry): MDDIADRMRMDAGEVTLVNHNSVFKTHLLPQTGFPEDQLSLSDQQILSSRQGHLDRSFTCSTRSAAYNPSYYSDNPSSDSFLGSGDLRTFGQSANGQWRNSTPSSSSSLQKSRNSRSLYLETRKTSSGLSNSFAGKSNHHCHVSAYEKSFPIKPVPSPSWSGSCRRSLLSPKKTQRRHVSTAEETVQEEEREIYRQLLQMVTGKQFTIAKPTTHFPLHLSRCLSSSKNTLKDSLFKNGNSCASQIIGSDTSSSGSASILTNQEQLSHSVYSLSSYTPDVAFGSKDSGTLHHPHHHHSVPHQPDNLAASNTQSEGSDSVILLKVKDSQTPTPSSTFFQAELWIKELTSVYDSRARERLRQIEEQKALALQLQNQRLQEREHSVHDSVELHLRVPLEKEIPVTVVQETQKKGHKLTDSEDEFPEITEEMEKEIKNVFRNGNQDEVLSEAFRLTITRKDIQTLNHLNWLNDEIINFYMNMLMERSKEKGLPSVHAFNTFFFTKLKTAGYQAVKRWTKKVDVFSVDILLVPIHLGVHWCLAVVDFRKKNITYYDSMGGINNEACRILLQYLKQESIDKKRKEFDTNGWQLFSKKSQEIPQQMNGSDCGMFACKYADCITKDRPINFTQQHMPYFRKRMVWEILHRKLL

Large T antigen = Large T antigen (Simian virus 40, UniProt P03070); format: functional, Betapolyomavirus macacae;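 also: Confirmatory-stage PubChem screen for compounds that inhibit SV40 T antigen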
[6] = target: T3, Sentrin-specific protease 1; assay: SENP1 catalytic domain blockers, concentration series – biochemical, kinetic FRET, dose response (AID 651697); format: functional; conditions: read-out: IC50_Mean
[7] = MIN6 cell viability loss – mouse insulinoma, cytotoxicity control, dose response (AID 2122); format: functional;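 also: confirmatory high-throughput counterscreen run to flag cytotoxic compounds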
[8] = Trypanosoma cruzi growth suppression in host cells – NIH3T3 host cells, beta-gal luminescence, confirmation (AID 2044); format: functional, cell-based;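 also: intracellular parasites grown in NIH/3T3 mouse fibroblasts as host cells; luminescent beta-galactosidase reporter signal from transgenic T. cruzi replicating inside host cells; inhibitors lower the luminescence signal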
[9] = NIH3T3 cell viability loss – ATP luminescence, mouse fibroblasts, counter-screen, dose response (AID 2010); format: functional, cell-based;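 also: cells exposed to compound for about 90 hours before reading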
[10] = decrease of insulin promoter-GFP reporter – imaging, high-content screening, mouse beta cells (AID 1628); format: functional; conditions: MIN6
Cytochrome P450 2D6 [11] = target: T1, Cytochrome P450 2D6; remark: listed apart in the source
[12] = luciferase reporter signal suppression in cells – H4 neuroglioma cells, luminescence, dose response (AID 1990); format: functional, cell-based
[13] = Luminescence Cell-Based Dose Response HTS to Identify Inhibitors of 5'UTR Stem-Loop Driven Prion Protein mRNA Translation in H4 Neuroglioblastoma Cells. [Related pubchem assays: 1827 (Project Summary), 1813 (Primary HTS)]; format: functional
[14] = alpha-synuclein stem-loop luciferase translation blockers – H4 neuroglioma cells, luminescence, confirmation (AID 1988); format: functional, cell-based
[15] = viability of PTEN-deleted HCT116 cells – cell-based, HCT116 PTEN knockout, dose response (AID 1047); format: functional;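 also: HCT116 colon tumor cells with PTEN knocked out; cells exposed to compound for 60 hours before readout; potency for loss of cell viability measured by luminescence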
[16] = viability of HCT116 lacking mutant beta-catenin – cell-based, human colon tumor, dose response (AID 1045); format: functional;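 also: HCT116 colon tumor cells with beta catenin knocked out; cells exposed to compound for 60 hours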

T1 sequence (P10635 whole entry): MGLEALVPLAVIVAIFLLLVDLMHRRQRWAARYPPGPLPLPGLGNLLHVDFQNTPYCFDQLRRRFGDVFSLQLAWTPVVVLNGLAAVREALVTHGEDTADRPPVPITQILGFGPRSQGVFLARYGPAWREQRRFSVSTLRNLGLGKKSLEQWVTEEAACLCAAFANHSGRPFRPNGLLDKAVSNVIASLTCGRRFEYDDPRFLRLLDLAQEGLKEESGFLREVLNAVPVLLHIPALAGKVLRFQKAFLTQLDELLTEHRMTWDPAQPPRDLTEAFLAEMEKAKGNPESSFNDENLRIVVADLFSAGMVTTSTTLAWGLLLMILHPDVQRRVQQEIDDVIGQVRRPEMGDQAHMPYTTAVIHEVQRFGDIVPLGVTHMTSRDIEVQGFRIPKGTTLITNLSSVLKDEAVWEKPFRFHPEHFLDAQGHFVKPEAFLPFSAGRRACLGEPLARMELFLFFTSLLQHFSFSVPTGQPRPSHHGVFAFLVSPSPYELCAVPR
Sequence of Cytochrome P450 2C19 (P33261 whole entry): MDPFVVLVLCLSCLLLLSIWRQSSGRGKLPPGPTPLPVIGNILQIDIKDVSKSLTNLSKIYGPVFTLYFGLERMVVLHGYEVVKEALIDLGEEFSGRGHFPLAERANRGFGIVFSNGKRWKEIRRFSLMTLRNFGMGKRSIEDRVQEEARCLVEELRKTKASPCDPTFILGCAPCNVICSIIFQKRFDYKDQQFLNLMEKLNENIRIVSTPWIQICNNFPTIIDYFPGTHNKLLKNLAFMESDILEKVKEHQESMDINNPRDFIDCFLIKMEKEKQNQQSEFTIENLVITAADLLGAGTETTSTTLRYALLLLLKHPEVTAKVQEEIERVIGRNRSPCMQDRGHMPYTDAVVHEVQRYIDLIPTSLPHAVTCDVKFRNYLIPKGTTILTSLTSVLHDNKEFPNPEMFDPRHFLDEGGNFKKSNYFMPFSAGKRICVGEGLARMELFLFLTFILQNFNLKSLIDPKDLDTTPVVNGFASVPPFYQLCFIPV
Sequence of DNA dC->dU-editing enzyme APOBEC-3G (Q9HC16 whole entry): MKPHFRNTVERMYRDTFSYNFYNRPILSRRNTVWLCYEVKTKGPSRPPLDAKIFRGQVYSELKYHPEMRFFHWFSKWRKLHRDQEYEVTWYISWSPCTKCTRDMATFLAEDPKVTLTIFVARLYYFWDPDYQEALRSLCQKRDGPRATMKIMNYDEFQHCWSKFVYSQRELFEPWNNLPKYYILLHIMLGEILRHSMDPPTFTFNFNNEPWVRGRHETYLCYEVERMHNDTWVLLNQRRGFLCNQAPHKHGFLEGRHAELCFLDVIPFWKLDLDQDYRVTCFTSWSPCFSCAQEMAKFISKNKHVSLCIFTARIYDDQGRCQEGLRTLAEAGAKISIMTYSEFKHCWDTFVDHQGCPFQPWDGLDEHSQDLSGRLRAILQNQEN
Sequence of Cytochrome P450 2C9 (P11712 whole entry): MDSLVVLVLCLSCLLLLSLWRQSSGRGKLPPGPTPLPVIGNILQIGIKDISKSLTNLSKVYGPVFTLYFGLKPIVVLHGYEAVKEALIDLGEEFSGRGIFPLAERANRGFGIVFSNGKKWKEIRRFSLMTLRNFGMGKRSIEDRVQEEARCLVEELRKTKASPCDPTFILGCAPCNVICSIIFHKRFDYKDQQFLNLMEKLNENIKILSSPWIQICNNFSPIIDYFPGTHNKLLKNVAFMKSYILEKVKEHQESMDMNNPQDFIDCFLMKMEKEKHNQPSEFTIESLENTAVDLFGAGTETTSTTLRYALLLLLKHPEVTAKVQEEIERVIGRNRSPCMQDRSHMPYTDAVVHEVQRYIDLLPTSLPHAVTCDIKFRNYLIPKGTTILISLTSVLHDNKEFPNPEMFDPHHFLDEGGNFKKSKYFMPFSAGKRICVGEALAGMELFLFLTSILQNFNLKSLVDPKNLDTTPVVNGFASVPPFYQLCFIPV
Sequence of DNA dC->dU-editing enzyme APOBEC-3A (P31941 whole entry): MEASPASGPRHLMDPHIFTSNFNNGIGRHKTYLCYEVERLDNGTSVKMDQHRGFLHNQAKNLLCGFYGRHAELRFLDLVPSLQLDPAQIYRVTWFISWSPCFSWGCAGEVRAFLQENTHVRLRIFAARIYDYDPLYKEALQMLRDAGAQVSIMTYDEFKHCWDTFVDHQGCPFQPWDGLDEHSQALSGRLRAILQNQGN
Sequence of Large T antigen (P03070 whole entry, the tested form may be a part): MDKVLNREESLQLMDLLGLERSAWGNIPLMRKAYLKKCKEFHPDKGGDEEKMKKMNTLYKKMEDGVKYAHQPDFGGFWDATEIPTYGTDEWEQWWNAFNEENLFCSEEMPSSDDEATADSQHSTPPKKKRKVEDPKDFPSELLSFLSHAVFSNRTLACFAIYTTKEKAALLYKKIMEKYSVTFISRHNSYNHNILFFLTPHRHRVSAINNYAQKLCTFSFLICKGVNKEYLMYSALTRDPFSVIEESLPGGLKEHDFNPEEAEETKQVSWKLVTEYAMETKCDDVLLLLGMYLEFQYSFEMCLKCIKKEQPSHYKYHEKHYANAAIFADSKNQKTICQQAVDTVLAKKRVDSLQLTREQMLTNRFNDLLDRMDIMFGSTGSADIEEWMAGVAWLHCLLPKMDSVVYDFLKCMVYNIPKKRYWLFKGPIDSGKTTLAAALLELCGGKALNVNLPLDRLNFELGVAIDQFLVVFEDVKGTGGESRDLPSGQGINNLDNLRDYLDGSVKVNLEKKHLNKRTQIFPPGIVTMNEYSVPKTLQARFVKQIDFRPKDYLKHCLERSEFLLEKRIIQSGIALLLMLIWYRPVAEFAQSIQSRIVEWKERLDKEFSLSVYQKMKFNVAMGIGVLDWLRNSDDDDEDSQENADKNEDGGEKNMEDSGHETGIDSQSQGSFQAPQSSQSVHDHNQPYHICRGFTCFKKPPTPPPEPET

In the case of `C[N+](C)(C)CCN(Cc1ccc(Cl)cc1)c1ccccn1.[I-]`, the IC50 [1] is reported as 2.05 µM (active), the AC50 (Cytochrome P450 2C9) is reported as “inconclusive” and the AC50 (Cytochrome P450 2C19) is reported as “inconclusive”. The AC50 (Cytochrome P450 2D6 [2]) was 0.251 µM (inconclusive) and the IC50 [3] was 2.01 µM (active).

With `CCOc1cc(/C=C2\N=C3CCCCCN3C2=O)ccc1O` the IC50 [4] was 39.9 µM (active), the IC50 [5] was 7.67 µM (active) and the IC50 (Large T antigen) was 16.9 µM (active). For the same compound, the IC50 [6] was 9.57 µM (active).

With `CCC(C)C(=O)Nc1nc(C)c(-c2csc(Nc3ccc(Cl)cc3)n2)s1` (stereo not given) the IC50 [7] was 3.05 µM (active), the EC50 [8] was 1.75 µM (active) and the EC50 [9] was > 60 µM (not active). The IC50 [10] was 2.48 µM (active).

With `O=C1NC(=O)N(CCC2=CCCCC2)C(=O)/C1=C\Nc1cccc(F)c1` the AC50 (Cytochrome P450 2D6 [11]) was “inconclusive”, the EC50 [12] was > 120 µM (not active) and the EC50 [13] was > 120 µM (not active). For the same compound, the EC50 [14] was 41.4 µM (active) and the AC50 (Cytochrome P450 2C19; read-out: AC50) was 10 µM (inconclusive).

In the case of `Cc1ccc(NC(=O)CSc2nnc(-c3ccncc3)o2)cc1`, the AC50 (Cytochrome P450 2D6 [11]) is reported as “inconclusive”.

In the case of `CCC(C)NCC(=O)Nc1ccc(-c2nc3cc(NC(=O)CNC(C)CC)ccc3o2)cc1` (stereo not given), the EC50 [15] is reported as 4.19 µM (active), the EC50 [16] is reported as 2.98 µM (active) and the IC50 [7] is reported as 1.66 µM (active). For the same compound, the IC50 [10] was 2.17 µM (active).

With `C=CCC(C#Cc1ccccc1)[N+](C)(C)CC=C` (stereo not given) the IC50 [7] was 10.7 µM (inactive) and the IC50 [10] was 8.7 µM (active).
